From patent US4087432A, “1H-imidazo(4,5-b)pyridine compounds” (Eli Lilly and Company, priority 1975, dated 1978)

Columns and labels:
Pigweed [1] = test: Postemergent injury rating, pigweed; type: in vivo, rough pigweed; set-up: key: injury rating scale, 4 = death; conditions: 8 lbs/acre
Protocol: (§1) Various of the compounds to be employed as active agent in accordance with the present invention were evaluated for preemergent application to various species of plants. In this evaluation, a soil was prepared consisting of one part masonry sand and one part shredded top soil blended together in a cement mixer. One gallon of this soil was placed in a 25 × 35 cm. galvanized flat and was patted down with a bench brush until level. A three-row marker was used to make 21/2 cm. deep furrows in approximately two-fifths of the flat. Crop seeds consisting of four kernels of corn, five cotton seeds and five soybean seeds were placed in these furrows. A four-row template was then placed on the remaining soil and the indicated approximate numbers of each of the following seeds were planted, one species to each section: foxtail (millet), 80-100 seeds; velvetleaf (40-50 seeds); rough pigweed (150-250 seeds); and large crabgrass (100-150 seeds).
(§2) Sufficient soil was added to cover the entire flat. Thus, the weed seeds were covered to a depth of about 6 mm. and the crop seeds were covered to a depth of about 3 cm.
(§3) In assaying the effect of the composition as preemergent herbicides, a flat prepared as above, taken either on the day of planting or on the next day, was placed in a chamber equipped with a turntable and an air exhaust. The herbicidal composition, either a spray-type emulsion or a wettable powder, was applied to the flat with a modified DeVilbiss atomizer hooked to an air source. Twelve and one-half milliliters of the composition under test were applied to each flat either on the day of planting or the succeeding day. Injury ratings and observations as to type of injury were made eleven to twelve days after treatment. The injury rating scale used was as follows:
(§4) 4--death When more than one determination was carried out at a given rate, an average value was calculated for the injury rating. Each compound evaluated was formulated as a spray by one of the following procedures. In one method the particular compound was wetted by grinding in a mortar with one part of polyoxyethylene sorbitan monolaurate. Five hundred parts of water were added slowly to the resultant creamy paste to give an aqueous dispersion with a surfactant concentration of 0.2 percent. This dispersion was entirely satisfactory for spray application. In a second procedure the compound was dissolved in one volume of acetone, and the acetone solution was diluted with nineteen volumes of water containing 0.1 percent of polyoxyethylene sorbitan monolaurate.
(§5) Representative compounds of the present invention were evaluated for postemergent application to plants including corn and several weed species. The evaluation was carried out in accordance with the procedures of Examples 49-52 except that the test solutions were applied about 9-12 days after the preparation and seeding of the flats.

Velvet Leaf [2] = test: Postemergent injury rating, velvetleaf; type: in vivo; conditions: 8 lbs/acre
Protocol: as §1, §2, §3, §4, §5

Corn [3] = test: Postemergent injury rating, corn; type: in vivo; set-up: key: injury rating scale, 4 = death; conditions: 8 lbs/acre
Protocol: as §1, §2, §3, §4, §5

Crabgrass = test: Postemergent injury rating, crabgrass; type: in vivo, large crabgrass; set-up: key: injury rating scale, 4 = death; conditions: 8 lbs/acre
Protocol: as §1, §2, §3, §4, §5

Foxtail = test: Postemergent injury rating, foxtail; type: in vivo, foxtail (millet); set-up: key: injury rating scale, 4 = death; conditions: 8 lbs/acre
Protocol: as §1, §2, §3, §4, §5

Johnson Grass = test: General herbicidal effect alone/in combination, Johnson grass; type: in vivo; conditions: alone
Protocol: as §1, §2, §3, §4
(§6) 6-Chloro-1-hydroxy-2-(trifluoromethyl)-1H-imidazo(4,5-b)pyridine was evaluated in combination with 2-chloro-4-ethylamino-6-isopropylamino-s-triazine and separately in combination with 2-chloro-2',6'-diethyl-N-(methoxymethyl)acetanilide for the control of plants. The evaluations were conducted as described in Examples 49-52, except that the rates of compound differed and the species were different. General herbicidal effect was rated on a scale of 0-10, with 0 = no injury and 10 = death. Observations were also made for the following other specific phytotoxic effects.

Rice = test: General herbicidal effect alone/in combination, rice; type: in vivo; set-up: key: 0-10 scale: 0 = no injury, 10 = death; conditions: alone
Protocol: as §1, §2, §3, §4, §6

Sorghum = test: General herbicidal effect alone/in combination, sorghum; type: in vivo; set-up: key: 0-10 scale: 0 = no injury, 10 = death; conditions: alone
Protocol: as §1, §2, §3, §4, §6

Pigweed [4] = test: General herbicidal effect alone/in combination, pigweed; type: in vivo; set-up: key: 0-10 scale: 0 = no injury, 10 = death; conditions: alone
Protocol: as §1, §2, §3, §4, §6

Corn [5] = test: General herbicidal effect alone/in combination, corn (second Corn column); type: in vivo; set-up: key: 0-10 scale: 0 = no injury, 10 = death; conditions: alone
Protocol: as §1, §2, §3, §4, §6

Foxtail Millet = test: General herbicidal effect alone/in combination, foxtail millet; type: in vivo; set-up: key: 0-10 scale: 0 = no injury, 10 = death; conditions: alone
Protocol: as §1, §2, §3, §4, §6

Jimsonweed = test: General herbicidal effect alone/in combination, jimsonweed; type: in vivo; set-up: key: 0-10 scale: 0 = no injury, 10 = death; conditions: alone
Protocol: as §1, §2, §3, §4, §6

Ragweed = test: General herbicidal effect alone/in combination, ragweed; type: in vivo; set-up: key: 0-10 scale: 0 = no injury, 10 = death; conditions: alone
Protocol: as §1, §2, §3, §4, §6

Morning glory = test: General herbicidal effect alone/in combination, morning glory; type: in vivo; set-up: key: 0-10 scale: 0 = no injury, 10 = death; conditions: alone
Protocol: as §1, §2, §3, §4, §6

Barnyard Grass = test: General herbicidal effect alone/in combination, barnyard grass; type: in vivo; set-up: key: 0-10 scale: 0 = no injury, 10 = death; conditions: alone
Protocol: as §1, §2, §3, §4, §6

Large Crabgrass = test: General herbicidal effect alone/in combination, large crabgrass; type: in vivo; set-up: key: 0-10 scale: 0 = no injury, 10 = death; conditions: alone
Protocol: as §1, §2, §3, §4, §6

Velvet Leaf [6] = test: General herbicidal effect alone/in combination, velvetleaf; type: in vivo; set-up: key: 0-10 scale: 0 = no injury, 10 = death; conditions: alone
Protocol: as §1, §2, §3, §4, §6

Lambs Quarter = test: General herbicidal effect alone/in combination, lambsquarter; type: in vivo; set-up: key: 0-10 scale: 0 = no injury, 10 = death; conditions: alone
Protocol: as §1, §2, §3, §4, §6

Corn [7] = test: General herbicidal effect alone/in combination, corn (first Corn column); type: in vivo; set-up: key: 0-10 scale: 0 = no injury, 10 = death; conditions: alone
Protocol: as §1, §2, §3, §4, §6

With On1c(C(F)(F)F)nc2nc(Br)c(Cl)c(Br)c21 [5,7-dibromo-6-chloro-1-hydroxy-2-(trifluoromethyl)-1H-imidazo(4,5-b)pyridine] the “Injury Rating, Pigweed” value (Pigweed [1]) was 4, the “Injury Rating, Velvet Leaf” value (Velvet Leaf [2]) was 3 and the “Injury Rating, Corn” value (Corn [3]) was 1. The “Injury Rating, Crabgrass” value (Crabgrass) was 4 and the “Injury Rating, Foxtail” value (Foxtail) was 4.

With CCc1cccc(CC)c1N(COC)C(=O)CCl [C, 2-chloro-2',6'-diethyl-N-(methoxymethyl)acetanilide] the “herbicidal effect, Johnson Grass” value (Johnson Grass; 0.5 lbs/A) was 9RS, the “herbicidal effect, Johnson Grass” value (Johnson Grass; 1.0 lbs/A) was 9RS and the “herbicidal effect, Johnson Grass” value (Johnson Grass; 2.0 lbs/A) was 9.5RS. For the same compound, the “herbicidal effect, Johnson Grass” value (Johnson Grass; 4.0 lbs/A) was 10N, the “herbicidal effect, Rice” value (Rice; 0.5 lbs/A) was 0 and the “herbicidal effect, Rice” value (Rice; 1.0 lbs/A) was 9RS. The “herbicidal effect, Rice” value (Rice; 2.0 lbs/A) was 10N, the “herbicidal effect, Rice” value (Rice; 4.0 lbs/A) was 10N and the “herbicidal effect, Sorghum” value (Sorghum; 0.5 lbs/A) was 3SF. The “herbicidal effect, Sorghum” value (Sorghum; 1.0 lbs/A) was 4SF, the “herbicidal effect, Sorghum” value (Sorghum; 2.0 lbs/A) was 8SF and the “herbicidal effect, Sorghum” value (Sorghum; 4.0 lbs/A) was 8SFR. The “herbicidal effect, Pigweed” value (Pigweed [4]; 0.5 lbs/A) was 7S, the “herbicidal effect, Pigweed” value (Pigweed [4]; 1.0 lbs/A) was 8SR and the “herbicidal effect, Pigweed” value (Pigweed [4]; 2.0 lbs/A) was 10N. For the same compound, the “herbicidal effect, Pigweed” value (Pigweed [4]; 4.0 lbs/A) was 10N, the “herbicidal effect, Corn” value (Corn [5]; 0.5 lbs/A) was 0 and the “herbicidal effect, Corn” value (Corn [5]; 1.0 lbs/A) was 0. For the same compound, the “herbicidal effect, Corn” value (Corn [5]; 2.0 lbs/A) was 1SB, the “herbicidal effect, Corn” value (Corn [5]; 4.0 lbs/A) was 2S and the “herbicidal effect, Foxtail Millet” value (Foxtail Millet; 0.5 lbs/A) was 9SBR. For the same compound, the “herbicidal effect, Foxtail Millet” value (Foxtail Millet; 1.0 lbs/A) was 9RSB, the “herbicidal effect, Foxtail Millet” value (Foxtail Millet; 2.0 lbs/A) was 9.5RSB and the “herbicidal effect, Foxtail Millet” value (Foxtail Millet; 4.0 lbs/A) was 10D. For the same compound, the “herbicidal effect, Jimsonweed” value (Jimsonweed; 0.5 lbs/A) was 0, the “herbicidal effect, Jimsonweed” value (Jimsonweed; 1.0 lbs/A) was 3S and the “herbicidal effect, Jimsonweed” value (Jimsonweed; 2.0 lbs/A) was 4S. For the same compound, the “herbicidal effect, Jimsonweed” value (Jimsonweed; 4.0 lbs/A) was 5S, the “herbicidal effect, Ragweed” value (Ragweed; 0.5 lbs/A) was 0 and the “herbicidal effect, Ragweed” value (Ragweed; 1.0 lbs/A) was 5S. The “herbicidal effect, Ragweed” value (Ragweed; 2.0 lbs/A) was 7S, the “herbicidal effect, Ragweed” value (Ragweed; 4.0 lbs/A) was 8SR and the “herbicidal effect, Morning glory” value (Morning glory; 0.5 lbs/A) was 0. The “herbicidal effect, Morning glory” value (Morning glory; 1.0 lbs/A) was 2S, the “herbicidal effect, Morning glory” value (Morning glory; 2.0 lbs/A) was 2SF and the “herbicidal effect, Morning glory” value (Morning glory; 4.0 lbs/A) was 3SF. The “herbicidal effect, Barnyard Grass” value (Barnyard Grass; 0.5 lbs/A) was 5SR, the “herbicidal effect, Barnyard Grass” value (Barnyard Grass; 1.0 lbs/A) was 8S and the “herbicidal effect, Barnyard Grass” value (Barnyard Grass; 2.0 lbs/A) was 8RSF. For the same compound, the “herbicidal effect, Barnyard Grass” value (Barnyard Grass; 4.0 lbs/A) was 9.5RS, the “herbicidal effect, Large Crabgrass” value (Large Crabgrass; 0.5 lbs/A) was 8RS and the “herbicidal effect, Large Crabgrass” value (Large Crabgrass; 1.0 lbs/A) was 9RS. For the same compound, the “herbicidal effect, Large Crabgrass” value (Large Crabgrass; 2.0 lbs/A) was 10N, the “herbicidal effect, Large Crabgrass” value (Large Crabgrass; 4.0 lbs/A) was 10N and the “herbicidal effect, Velvet leaf” value (Velvet Leaf [6]; 0.5 lbs/A) was 2S. For the same compound, the “herbicidal effect, Velvet leaf” value (Velvet Leaf [6]; 1.0 lbs/A) was 3S, the “herbicidal effect, Velvet leaf” value (Velvet Leaf [6]; 2.0 lbs/A) was 6S and the “herbicidal effect, Velvet leaf” value (Velvet Leaf [6]; 4.0 lbs/A) was 3S. The “herbicidal effect, Lambs Quarter” value (Lambs Quarter; 1.0 lbs/A) was 5S, the “herbicidal effect, Lambs Quarter” value (Lambs Quarter; 2.0 lbs/A) was 10N and the “herbicidal effect, Lambs Quarter” value (Lambs Quarter; 4.0 lbs/A) was 10N. For the same compound, the “herbicidal effect, Corn” value (Corn [7]; 0.5 lbs/A) was 0, the “herbicidal effect, Corn” value (Corn [7]; 1.0 lbs/A) was 0 and the “herbicidal effect, Corn” value (Corn [7]; 2.0 lbs/A) was 2S. For the same compound, the “herbicidal effect, Corn” value (Corn [7]; 4.0 lbs/A) was 2S.
